Experimental findings from US11661426B2, “Imidazole-containing inhibitors of ALK2 kinase” (BioCryst Pharmaceuticals, Inc., priority 2017, dated 2023) are described below.

A value given as a limit tells only on which side of the number the result lay.

The assay deals with ALK2 (Homo sapiens (Human), UniProt Q04771). As to the kind of experiment: ALK2 inhibition, LanthaScreen Eu Kinase Binding Assay (ThermoFisher Scientific / Life Technologies). The conditions noted are these: read-out: Measured Ki (IC50) Value for Compounds: IC50. The procedure:
Biochemical assays to measure the inhibitory effects of the compounds were performed by ThermoFisher Scientific (Life Technologies). ALK2 inhibition was tested using LanthaScreen™ Eu Kinase Binding Assay screening protocol.
A general note: Time-resolved FRET reads energy transfer from a long-lived donor to a nearby acceptor.

Chain of ALK2 (Q04771 21-509): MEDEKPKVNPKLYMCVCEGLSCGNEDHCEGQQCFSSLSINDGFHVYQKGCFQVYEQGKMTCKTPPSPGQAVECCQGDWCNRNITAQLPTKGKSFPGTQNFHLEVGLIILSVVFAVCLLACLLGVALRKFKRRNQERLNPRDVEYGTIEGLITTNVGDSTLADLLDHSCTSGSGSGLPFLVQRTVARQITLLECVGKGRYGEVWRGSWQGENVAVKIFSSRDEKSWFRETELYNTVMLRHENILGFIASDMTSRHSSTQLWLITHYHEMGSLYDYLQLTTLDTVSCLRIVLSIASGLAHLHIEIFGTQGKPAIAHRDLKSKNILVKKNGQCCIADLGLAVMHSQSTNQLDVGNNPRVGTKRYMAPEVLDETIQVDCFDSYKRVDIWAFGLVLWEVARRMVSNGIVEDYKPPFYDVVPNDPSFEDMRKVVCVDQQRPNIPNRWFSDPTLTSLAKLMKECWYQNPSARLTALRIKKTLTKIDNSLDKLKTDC

On to `COc1ccc(-c2csc3c(Nc4cn(-c5ccccc5)cn4)nc(N4CCC[C@H]4CO)nc23)cc1` [Compound 89a, (S)-(1-(7-(4-methoxyphenyl)-4-(1-phenyl-1H-imidazol-4-ylamino)thieno[3,2-d]pyrimidin-2-yl)pyrrolidin-2-yl)methanol], for which the IC50 fell in the range of 100 to 1000 nM.
As for `Cn1cnc(-n2cnc(Nc3nc(N4CCC[C@H]4CO)nn4cccc34)c2)c1` [Compound 82a, (S)-(1-(4-((1′-methyl-1′H-[1,4′-biimidazol]-4-yl)amino)pyrrolo[2,1-f][1,2,4]triazin-2-yl)pyrrolidin-2-yl)methanol], the IC50 was below 100 nM.
With `COc1cc(-n2cnc(Nc3nc(N4CCC[C@@H]4CO)c4cc[nH]c4n3)c2)cc(OC)c1OC` [Compound 307c, (R)-(1-(2-((1-(3,4,5-trimethoxyphenyl)-1H-imidazol-4-yl)amino)-7H-pyrrolo[2,3-d]pyrimidin-4-yl)pyrrolidin-2-yl)methanol], the IC50 was below 100 nM.
As for `COc1cc(-n2cnc(Nc3nc(N4CCC[C@H]4CO)nc4[nH]cc(C#N)c34)c2)cc(OC)c1OC` [Compound 397a, (S)-2-(2-(hydroxymethyl)pyrrolidin-1-yl)-4-((1-(3,4,5-trimethoxyphenyl)-1H-imidazol-4-yl)amino)-7H-pyrrolo[2,3-d]pyrimidine-5-carbonitrile], the IC50 was 100 to 1000 nM.
As to `c1ccc([C@@H]2CCCN2c2nc(Nc3cn(C4CCC4)cn3)c3cccn3n2)nc1` [Compound 64a, (S)—N-(1-cyclobutyl-1H-imidazol-4-yl)-2-(2-(pyridin-2-yl)pyrrolidin-1-yl)pyrrolo[2,1-f][1,2,4]triazin-4-amine], the IC50 is below 100 nM.
Take `N#Cc1cc(O)cc(-n2cnc(Nc3nc(N4CCC[C@H]4CO)nn4cccc34)c2)c1` [Compound 127b, (S)-3-hydroxy-5-(4-((2-(2-(hydroxymethyl)pyrrolidin-1-yl)pyrrolo[2,1-f][1,2,4]triazin-4-yl)amino)-1H-imidazol-1-yl)benzonitrile]: the IC50 is below 100 nM.
For the compound `OC[C@@H]1CCCN1c1nc(Nc2cn(-c3cccc(O)c3O)cn2)c2cccn2n1` [Compound 424f, (S)-3-(4-((2-(2-(hydroxymethyl)pyrrolidin-1-yl)pyrrolo[2,1-f][1,2,4]triazin-4-yl)amino)-1H-imidazol-1-yl)benzene-1,2-diol], the IC50 lay within 100 to 1000 nM.
Then `COc1cc(-n2cnc(Nc3nc(N4CCC[C@H]4CO)c4cnn(C)c4n3)c2)cc(OC)c1OC` [Compound 338b, (S)-(1-(1-methyl-6-((1-(3,4,5-trimethoxyphenyl)-1H-imidazol-4-yl)amino)-1H-pyrazolo[3,4-d]pyrimidin-4-yl)pyrrolidin-2-yl)methanol], with below 100 nM; and `COc1cc(-n2cnc(Nc3nc(N4CCC[C@H]4C(N)=O)nc4c3CCN(CCC(N)=O)C4)c2)cc(OC)c1OC` [Compound 255a, (S)-1-(7-(3-amino-3-oxopropyl)-4-((1-(3,4,5-trimethoxyphenyl)-1H-imidazol-4-yl)amino)-5,6,7,8-tetrahydropyrido[3,4-d]pyrimidin-2-yl)pyrrolidine-2-carboxamide], with below 100 nM.
For the compound `NC(=O)[C@@H]1CCCN1c1nc(Nc2cn(-c3ccc4c(c3)OC(F)(F)O4)cn2)c2ccsc2n1` [Compound 431e, (S)-1-(4-((1-(2,2-difluorobenzo[d][1,3]dioxol-5-yl)-1H-imidazol-4-yl)amino)thieno[2,3-d]pyrimidin-2-yl)pyrrolidine-2-carboxamide], the IC50 was above 1000 nM.
In the case of `COc1cc(-n2cnc(Nc3nc(N4CCC[C@H]4C(N)=O)nc4ccccc34)c2)cc(OC)c1OC` [Compound 130a, (S)-1-(4-((1-(3,4,5-trimethoxyphenyl)-1H-imidazol-4-yl)amino)quinazolin-2-yl)pyrrolidine-2-carboxamide], the IC50 is below 100 nM.
For the compound `NC(=O)c1ccc(-n2cnc(Nc3nc(N4CCC[C@H]4CO)nn4cccc34)c2)cc1` [Compound 93c, (S)-4-(4-(2-(2-(hydroxymethyl)pyrrolidin-1-yl)pyrrolo[1,2-f][1,2,4]triazin-4-ylamino)-1H-imidazol-1-yl)benzamide], the IC50 was below 100 nM.
Consider `CN1CCN(c2nc(Nc3cn(C)cn3)c3cccn3n2)CC1` [Compound 34a, N-(1-methyl-1H-imidazol-4-yl)-2-(4-methylpiperazin-1-yl)pyrrolo[2,1-f][1,2,4]triazin-4-amine], for which the 50% inhibitory concentration (IC50) was above 1000 nM.
`COc1cc(-n2cnc(Nc3nc(N4CCC[C@@H]4C(N)=O)c4cccn4n3)c2)cc(OC)c1OC` [Compound 176b, (R)-1-(2-((1-(3,4,5-trimethoxyphenyl)-1H-imidazol-4-yl)amino)pyrrolo[2,1-f][1,2,4]triazin-4-yl)pyrrolidine-2-carboxamide]: the half-inhibitory concentration (IC50) was 100 to 1000 nM.
Consider `COC(=O)c1cc(OC)cc(-n2cnc(Nc3nc(N4CCC[C@H]4CO)nn4cccc34)c2)c1` [Compound 416e, (S)-methyl 3-(4-((2-(2-(hydroxymethyl)pyrrolidin-1-yl)pyrrolo[2,1-f][1,2,4]triazin-4-yl)amino)-1H-imidazol-1-yl)-5-methoxybenzoate], for which the IC50 is below 100 nM.
The result for `CC(C)(C)CC(=O)N1CCN(c2nc(Nc3cn(-c4ccccc4)cn3)c3ccsc3n2)CC1` [Compound 61b, 3,3-dimethyl-1-(4-(4-((1-phenyl-1H-imidazol-4-yl)amino)thieno[2,3-d]pyrimidin-2-yl)piperazin-1-yl)butan-1-one] reads below 100 nM.
On to `COc1c(O)cc(-n2cnc(Nc3nc(N4CCC[C@H]4CO)nn4cccc34)c2)cc1C(=O)NCC1CC1` [Compound 267i, (S)—N-(cyclopropylmethyl)-3-hydroxy-5-(4-((2-(2-(hydroxymethyl)pyrrolidin-1-yl)pyrrolo[2,1-f][1,2,4]triazin-4-yl)amino)-1H-imidazol-1-yl)-2-methoxybenzamide], for which the IC50 lay within 100 to 1000 nM.
Take `COc1cc(-n2cnc(Nc3nc(N4CCC[C@H]4CO)c4cccn4n3)c2)cc(C(N)=O)c1OC` [Compound 231a, (S)-5-(4-((4-(2-(hydroxymethyl)pyrrolidin-1-yl)pyrrolo[2,1-f][1,2,4]triazin-2-yl)amino)-1H-imidazol-1-yl)-2,3-dimethoxybenzamide]: the IC50 lay within 100 to 1000 nM.
Take `c1ccc(C2CCCN2c2nc(Nc3cn(C4CCC4)cn3)c3cccn3n2)nc1` (stereo not shown) [Compound 37c, N-(1-cyclobutyl-1H-imidazol-4-yl)-2-(2-(pyridin-2-yl)pyrrolidin-1-yl)pyrrolo[2,1-f][1,2,4]triazin-4-amine]: the IC50 is below 100 nM.
For `OC[C@@H]1CCCN1c1nc(Nc2cn(-c3ccc(F)cc3)cn2)c2cccn2n1` [Compound 25c, (S)-(1-(4-((1-(4-fluorophenyl)-1H-imidazol-4-yl)amino)pyrrolo[2,1-f][1,2,4]triazin-2-yl)pyrrolidin-2-yl)methanol], the half-inhibitory concentration (IC50) was below 100 nM.
The result for `Cn1cnc(Nc2nc(N3CCCC3c3ccccn3)nc3ccsc23)c1` (stereo not shown) [Compound 12c, N-(1-methyl-1H-imidazol-4-yl)-2-(2-(pyridin-2-yl)pyrrolidin-1-yl)thieno[3,2-d]pyrimidin-4-amine] reads below 100 nM; that for `COc1cc(-n2cnc(Nc3cc(C(=O)O)cc4ccoc34)c2)cc(OC)c1OC` [Compound 411c, 7-((1-(3,4,5-trimethoxyphenyl)-1H-imidazol-4-yl)amino)benzofuran-5-carboxylic acid], 100 to 1000 nM.

What is called IC50 is the concentration that inhibits the measured activity by half.
